These are literature values, as cited in patent publication US12048769B2, “Methods for administering weight loss medications” (priority 2006, dated 2024).

The conditions of data set [1]: in vivo.
For data set [2] the following is noted: in vivo. The source holds these as a separate data set.
Data set [3] has as its system patients presenting primary obesity. To be noted: comparable to marketed weight loss medications.

With `CNCCC(Oc1ccc(C(F)(F)F)cc1)c1ccccc1` (stereo not drawn) [Fluoxetine, N-methyl-3-phenyl-3-[4-(trifluoromethyl)phenoxy]-propan-1-amine], for the setting “in vivo”, the bioavailability entry is “approximately 72%” and the “time to complete excretion” value is “several weeks”. Also, where the note is “mostly albumin”, the plasma protein binding entry was “highly bound”. For the same molecule, the “elimination half-life in liver disease” value (those with liver disease) is “prolonged”. Moreover, in data set [1], the physiological half life result is listed as “about 24 hours”.
As to `Cc1cc2c(s1)Nc1ccccc1N=C2N1CCN(C)CC1` [Olanzapine, 2-methyl-4-(4-methyl-1-piperazinyl)-10H-thieno[2,3-b][1,5]benzodiazepine], in data set [2], the “effect of food on bioavailability” value is “not affected by food”, the first pass metabolism entry is listed as “extensive first pass metabolism”, the kinetics entry is reported as “linear kinetics” and the “time to steady state plasma concentrations” value is given as “about a week”.
Take `NS(=O)(=O)Cc1noc2ccccc12` [Zonisamide]: the weight loss entry in data set [3] is on record as “significant weight loss”. In addition, the “inhibitory effect on carbonic anhydrase” value in the data set with carbonic anhydrase is given as “weak inhibitory effect”.
Regarding `NCCC(Oc1ccc(C(F)(F)F)cc1)c1ccccc1` (stereo not drawn) [norfluoxetine], the elimination half-life (after long-term use, healthy adults) is listed as 16 days.
